How the values were obtained:
MEL cells = assay: MEL cell viability and cell cycle profile; assay type: cell-based, Murine
Procedure: Ethanol fixed cells were incubated with prodium iodide (20 μg/ml) and RNAse (10 μg/ml) before cell cycle analysis by flow cytometry. Proteins were analysed by standard western blotting procedures employing the following antibodies: anti-tubulin and anti-flag (both from Sigma), anti-actin (Chemicon International), anti-histone 4 (Upstate Biotechnology), anti-phospho p54, anti-phospho p46, anti-phospho p38, total p54, total p46 and total p38 (all from Cell Signalling Technology) anti-ING2, anti EGFP (Clontech), anti-type II β PIP kinase, anti-GST and anti-myc (both generated in house).
To investigate the sub-nuclear localisation of UV-induced nuclear PtdInsPs, we fractionated nuclei to generate nucleoplasm (containing nuclear membranes and soluble nuclear material) and the chromatin enriched fraction (CEF) (FIG. 1c inset). […] Thus, the PtdInsP pool present in the CEF is a target for regulation in response to cellular stress.

ING2 = assay: Western blot of endogenous ING2 associated with the CEF of MEL cells; assay type: cell-based, Murine; conditions: MEL cells; 200 J/m UV; NAC 5 mM 4 hours, wortmannin 200 nM and 5 μM, curcumin 100 μM
Procedure: FIG. 4. A) Exponentially growing MEL cells were irradiated with either 200 J/m of UV light or 10 Gy of gamma radiation. After 30 minutes the CEF was isolated and the subjected to SDS-PAGE followed by transfer of the separated proteins to a nitrocellulose membrane. Western blotting for endogenous ING2 and histone 4 proteins was performed. Representative western blots are shown. B) Exponentially growing MEL cells were incubated in the absence or presence of N-acetyl cysteine (NAC) (5 mM) for 4 hours prior to a control irradiation or exposed to 200 J/m of UV light before the isolation of the CEF. Differentiated MEL cells were incubated in the absence or presence of H2O2 (500 μM) for 15 minutes prior to the isolation of the CEF. Proteins in the CEF were subjected to SDS-PAGE followed by transfer to a nitrocellulose membrane. Western blotting for endogenous ING2 and histone 4 proteins was performed. Representative western blots are shown. C) MEL cells were preincubated with either vehicle, wortmannin (200 nM and 5 μM) or curcumin (100 μM) were irradiated with 200 J/m of UV light. After 30 minutes the CEF was isolated and proteins were subjected to SDS-PAGE followed by transfer to a nitrocellulose membrane. Western blotting for endogenous ING2 and histone 4 proteins was performed. Representative western blots are shown. D) The CEF from transiently transfected MEL cells with either pSuper or pSuper-IIβRNAi was prepared. Proteins in the CEF were subjected to SDS-PAGE followed by transfer to a nitrocellulose membrane. […] Proteins were analysed by standard western blotting procedures employing the following antibodies: anti-tubulin and anti-flag (both from Sigma), anti-actin (Chemicon International), anti-histone 4 (Upstate Biotechnology), anti-phospho p54, anti-phospho p46, anti-phospho p38, total p54, total p46 and total p38 (all from Cell Signalling Technology) anti-ING2, anti EGFP (Clontech), anti-type II β PIP kinase, anti-GST and anti-myc (both generated in house).

[1] = tested on: PtdIns4P and PtdIns5P in the CEF of MEL cells; assay: Mass assay of PtdIns4P and PtdIns5P in the CEF of MEL cells with or without UV irradiation; assay type: cell-based, Murine; conditions: MEL cells preincubated with wortmannin (200 nM and 5 μM) or curcumin (100 μM); 200 J/m UV; CEF after 30 minutes
Procedure: D) MEL cells were preincubated with either vehicle (DMSO) or wortmannin (200 nM and 5 μM) were irradiated with 200 J/m of UV light. After 30 minutes the CEF was isolated and a mass assay was used to determine the levels of PtdIns4P and PtdIns5P (expressed as % of control non-irradiated cells. The results are calculated from 3 independent experiments).
E) MEL cells were preincubated with either vehicle (ethanol) or curcumin (100 μM) were irradiated with 200 J/m of UV irradiation. After 30 minutes the CEF was isolated and a mass assay was used to determine the levels of PtdIns4P and PtdIns5P (expressed as % of control, non curcumin-treated nor non UV-irradiated cells. The results are calculated from 3 independent experiments).
C) MEL cells were transiently transfected to express EGFP, EGFP-type II b PIP kinase and EGFP-IpgD/IpgE. In addition MEL cells were transfected with pSuper-IIβRNAi. […] A mass assay was used to determine the level of PtdIns5P (expressed as % of control non-irradiated cells. The results are calculated from 3 independent experiments). […]
MEL cells were washed, twice in ice cold PBS before their fractionation using a detergent-free hypotonic buffer. […] The protein content of all fractions was determined using the Bradford reagent (BioRad). PtdIns4P and PtdIns5P were measured using in vitro mass assays employing recombinant type I and type II PIP kinases, respectively. […]

PIKfyve = PIKfyve (Homo sapiens, UniProt Q9Y2I7); conditions: background statement; cited from earlier work
Chain of PIKfyve (Q9Y2I7 whole entry, species assumed): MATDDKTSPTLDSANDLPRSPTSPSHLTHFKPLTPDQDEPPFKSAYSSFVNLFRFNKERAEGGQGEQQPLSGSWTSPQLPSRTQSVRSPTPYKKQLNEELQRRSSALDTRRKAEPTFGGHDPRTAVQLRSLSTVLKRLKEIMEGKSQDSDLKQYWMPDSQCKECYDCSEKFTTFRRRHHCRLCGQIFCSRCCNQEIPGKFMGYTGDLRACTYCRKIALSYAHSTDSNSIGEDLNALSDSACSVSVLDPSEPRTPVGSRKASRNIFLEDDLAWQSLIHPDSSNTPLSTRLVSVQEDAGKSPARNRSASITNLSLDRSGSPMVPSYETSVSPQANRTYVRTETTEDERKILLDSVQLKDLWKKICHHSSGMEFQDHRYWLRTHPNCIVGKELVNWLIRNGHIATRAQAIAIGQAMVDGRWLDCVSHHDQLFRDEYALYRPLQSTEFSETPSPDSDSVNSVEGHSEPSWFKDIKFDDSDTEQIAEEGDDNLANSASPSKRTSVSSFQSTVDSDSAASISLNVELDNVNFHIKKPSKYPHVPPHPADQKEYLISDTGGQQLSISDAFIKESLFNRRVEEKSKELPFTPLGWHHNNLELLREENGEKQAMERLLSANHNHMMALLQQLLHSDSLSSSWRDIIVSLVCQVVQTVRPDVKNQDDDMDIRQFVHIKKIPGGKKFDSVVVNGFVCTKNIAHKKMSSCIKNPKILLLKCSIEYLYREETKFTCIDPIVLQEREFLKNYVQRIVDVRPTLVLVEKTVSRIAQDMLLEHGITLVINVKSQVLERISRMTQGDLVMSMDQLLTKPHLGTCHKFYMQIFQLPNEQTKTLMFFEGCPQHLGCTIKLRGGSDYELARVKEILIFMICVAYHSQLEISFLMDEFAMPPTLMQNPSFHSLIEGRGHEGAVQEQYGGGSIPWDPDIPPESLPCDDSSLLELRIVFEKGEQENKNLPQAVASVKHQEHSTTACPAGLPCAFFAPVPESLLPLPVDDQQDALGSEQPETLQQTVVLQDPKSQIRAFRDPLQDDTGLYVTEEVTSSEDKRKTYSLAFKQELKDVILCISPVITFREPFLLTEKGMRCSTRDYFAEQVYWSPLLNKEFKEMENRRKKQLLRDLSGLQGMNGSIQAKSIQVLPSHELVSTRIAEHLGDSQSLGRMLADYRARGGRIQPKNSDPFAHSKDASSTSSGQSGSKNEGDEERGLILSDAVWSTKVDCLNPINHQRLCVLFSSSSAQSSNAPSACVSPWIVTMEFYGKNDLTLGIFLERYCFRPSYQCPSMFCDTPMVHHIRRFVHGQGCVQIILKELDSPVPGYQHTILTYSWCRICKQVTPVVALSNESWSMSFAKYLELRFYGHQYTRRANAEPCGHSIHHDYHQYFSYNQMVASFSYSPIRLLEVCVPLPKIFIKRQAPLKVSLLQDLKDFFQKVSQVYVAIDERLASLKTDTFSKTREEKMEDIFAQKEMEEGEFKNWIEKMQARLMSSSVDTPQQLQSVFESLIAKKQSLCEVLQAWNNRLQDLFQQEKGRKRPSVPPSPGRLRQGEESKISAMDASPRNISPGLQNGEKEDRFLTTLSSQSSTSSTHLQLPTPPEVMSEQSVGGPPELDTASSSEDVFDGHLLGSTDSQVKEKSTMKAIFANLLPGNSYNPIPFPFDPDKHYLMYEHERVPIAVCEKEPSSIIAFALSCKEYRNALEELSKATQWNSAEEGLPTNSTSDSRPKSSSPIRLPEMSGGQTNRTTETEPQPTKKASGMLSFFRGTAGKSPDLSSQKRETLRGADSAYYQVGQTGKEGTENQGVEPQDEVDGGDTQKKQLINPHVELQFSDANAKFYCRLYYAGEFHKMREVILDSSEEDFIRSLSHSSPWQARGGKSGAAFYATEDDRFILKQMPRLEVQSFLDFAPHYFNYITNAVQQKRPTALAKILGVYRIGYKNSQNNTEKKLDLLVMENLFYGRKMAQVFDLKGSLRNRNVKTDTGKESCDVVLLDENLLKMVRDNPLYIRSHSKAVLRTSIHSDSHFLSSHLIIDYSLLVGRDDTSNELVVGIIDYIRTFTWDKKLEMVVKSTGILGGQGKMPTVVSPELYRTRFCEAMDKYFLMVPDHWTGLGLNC

COc1cc(/C=C/C(=O)CC(=O)/C=C/c2ccc(O)c(OC)c2)ccc1O [curcumin]
effect on MEL cell viability (MEL cells): no effect | effect on the cell cycle profile (MEL cells; MEL cells, compound alone): no effect | UV-induced translocation of endogenous ING2 to the CEF (ING2): completely inhibited | UV light-induced accumulation of PtdIns4P [1]: inhibited | UV light-induced accumulation of PtdIns5P [1]: inhibited | inhibition of PIKfyve (PIKfyve): able to inhibit
